Measurements: paper PMC11056982, “Paraptotic Cell Death as an Unprecedented Mode of Action Observed for New Bipyridine-Silver(I) Compounds Bearing Phosphane Coligands” (Journal of Medicinal Chemistry, 2024)
Marks after values point to notes of the source that are not given here.

Tests used:
MES-OV/CBP = test: MTT viability assay in carboplatin-resistant MES-OV/CBP cells; format: cell-based, human; conditions: 72 h; for relative resistance (IC50 MES-OV/CBP divided by IC50 MES-OV): resistant subline vs parental line; for IC50: MTT, carboplatin-resistant subline, mean ± SD
Description: (§1) Cells were seeded (2 × 10^4 cells/well for HCT116, HCT116/OxR, 3 × 10^4 cells/well for HCT116 p53KO, 4 × 10^4 cells/well for MES-OV, SK-OV-3, and their respective CBP resistant counterparts) in 100 μL/well in 96-well plates and allowed to attach for 24 h at 37 °C and 5% CO2. Compounds were first dissolved in DMSO to a 10 mM stock solution and then further diluted in a growth medium (DMSO concentration <1%). After 24 h, cells were treated with 100 μL of different drugs dilutions in triplicates with the final concentrations of 0, 0.01, 0.05, 0.075, 0.1, 0.5, 0.75, 1, 2.5, 5, 7.5, and 10 μM depending on the compound and the cell line.

SK-OV-3/CBP = test: MTT viability assay in carboplatin-resistant SK-OV-3/CBP cells; format: cell-based, human; conditions: 72 h; for relative resistance (IC50 SK-OV-3/CBP divided by IC50 SK-OV-3): resistant subline vs parental line; for IC50: MTT, carboplatin-resistant subline, mean ± SD
Description: as §1

HCT116 WT/OxR = test: MTT viability assay in oxaliplatin-resistant HCT116 WT/OxR cells; format: cell-based, human; conditions: 72 h; for relative resistance (IC50 HCT116 WT/OxR divided by IC50 HCT116 WT): resistant subline vs parental line; for IC50: MTT, oxaliplatin-resistant subline, mean ± SD
Description: as §1

MES-OV cells [1] = test: ROS detection by DCF-DA flow cytometry in MES-OV; format: cell-based, human; conditions: 24 h, 2.5 μM
Description: Cells were seeded 5 × 10^5 cells/mL in six-well plates. After 24 h treatment with the indicated concentration, cells were incubated with 10 μM 2′,7′-dichlorofluorescein diacetate (DCFH-DA, Sigma-Aldrich) in Hank’s balanced salt solution for 1 h at 37 °C. Subsequently, flow cytometry (with BD LSR Fortessa instrument, BD Biosciences, Franklin Lakes, NJ, USA) was performed to measure the median fluorescence signal of 20,000 single cells per sample. FlowJo (BD Biosciences, San Jose, CA, USA) and GraphPad Prism software (GraphPad Software Inc., San Diego, CA, USA) were to analyze the data.

[2] = Stability in PBS by LC-ESI(+)-HRMS/MS; format: physicochemical; conditions: 80 μM in PBS, monitored 48 h
Description: For the stability evaluation in PBS, 10 mM solutions of complexes 1, 4, and 7 were first prepared in DMSO. Two microliters of this solution were then added to PBS (250 μL) for a total concentration of 80 μM. Following centrifugation for 10 min at 3000 rpm, the resulting solutions were monitored by LC-ESI(+)-MS and LC-ESI(+)-HRMS for a period of 48 h.

MES-OV cells [3] = test: Phase-contrast microscopy of cytoplasmic vacuoles; format: cell-based, human; conditions: 6 and 24 h treatment
Description: Cells were seeded 5 × 10^5/well in six-well plates after 24 h recovery treatment with compounds 1, 4, and 7 was performed with the indicated concentrations. After 6 and 24 h, phase-contrast images of the cells were taken with a Zeiss Primovert microscope (20× magnification). To determinate the percentage of vacuolated cells, images (three images each condition) were analyzed by ImageJ, and vacuolated cells were counted.

MES-OV cells [4] = test: TEM analysis of subcellular morphology; format: cell-based, human; conditions: 24 h treatment
Description: MES-OV Cells were seeded (8 × 10^5 cells/mL) in […] in six-well plates. After 24 h, cells were treated with the selected compounds at the indicated concentration for another 24 h. Afterward, cells were collected, pelleted, and fixed in a solution of 2.5% glutaraldehyde and 2% paraformaldehyde in 0.1 M cacodylate buffer (pH 7.4) for 2 h at room temperature. Samples were subsequently washed 3 × 10 min in cacodylate buffer and postfixed in 1% osmium tetroxide for 1 h. After 3 × 10 min washing in cacodylate buffer, samples were dehydrated in an ethanol series (30–100%, 10 min each) and pure acetone (2 × 10 min) and gradually embedded in Epon 812 resin (Serva). Sections (40–50 nm) were prepared with a Leica UC7 ultramicrotome, mounted on copper mesh grids, and contrasted with 1% uranyl acetate (7 min) and 3% lead citrate (3 min). Imaging was performed with a Tecnai G2 20 transmission electron microscope at 80 kV equipped with an FEI Eagle 4K CCD camera (Center for Anatomy and Cell Biology). Image processing was performed in Fiji[57] using the CLAHE filter (enhance local contrast).

MES-OV cells [5] = test: Mitochondrial membrane potential by JC-1 stain (flow cytometry); format: cell-based, human; conditions: 24 h
Description: Cells were seeded in a density of (2–4) × 10^5 cells/well in six-well plates and in 1 mL culture medium containing 10% FBS. After 24 h recovery, cells were treated with the indicated compounds and concentrations. Next, the supernatant was collected followed by trypsinization of the cells and centrifugation at 300g for 5 min. In the following protocols, cells were stained with annexin V (AV) and propidium iodide (PI) for cell death analysis, with only PI for cell cycle analysis, or with 10 μg mL^–1 JC-1 for evaluation of the mitochondrial membrane potential as previously described.[54],[55]

MES-OV = test: MTT viability assay in MES-OV ovarian carcinoma cells; format: cell-based, human; conditions: for cancer cells killed at lowest tested concentration: MES-OV, 0.05 μM; for cancer cells killed at lowest tested concentration / IC50: 72 h; for IC50: MTT, mean ± SD
Description: as §1

recombinant rat TrxR = biological target: T1, recombinant rat TrxR (Rattus norvegicus, UniProt O89049); test: Inhibition of mammalian TrxR (microplate reader-based DTNB assay); format: biochemical; conditions: cell-free assay
T1 construct: purchased Cayman Chemical
T1 sequence (O89049 1-499): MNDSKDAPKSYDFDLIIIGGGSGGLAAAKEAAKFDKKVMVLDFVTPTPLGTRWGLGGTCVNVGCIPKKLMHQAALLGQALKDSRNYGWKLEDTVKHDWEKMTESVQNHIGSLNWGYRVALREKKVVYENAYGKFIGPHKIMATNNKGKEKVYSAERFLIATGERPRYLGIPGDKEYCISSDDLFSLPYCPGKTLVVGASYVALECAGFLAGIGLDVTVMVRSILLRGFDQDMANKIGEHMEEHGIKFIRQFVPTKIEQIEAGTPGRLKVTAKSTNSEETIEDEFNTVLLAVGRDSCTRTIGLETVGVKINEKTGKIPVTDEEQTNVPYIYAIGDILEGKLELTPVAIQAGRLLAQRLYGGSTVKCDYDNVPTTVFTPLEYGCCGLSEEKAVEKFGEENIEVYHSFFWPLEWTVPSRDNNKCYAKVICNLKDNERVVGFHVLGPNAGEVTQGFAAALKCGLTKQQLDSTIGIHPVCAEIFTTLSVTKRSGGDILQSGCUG
Description: To determine the inhibition of mammalian TrxR, an established microplate reader-based assay was performed. For this purpose, commercially available recombinant rat TrxR (from Cayman Chemical) was used and diluted with distilled water to achieve a concentration of 0.12 U mL^–1. The compounds were freshly dissolved as stock solutions in DMSO. Aliquots (25 μL) of the enzyme solution and 25 μL of potassium phosphate buffer (pH 7.0) containing the compounds in graded concentrations (1% DMSO) were mixed. Positive controls were composed of 25 μL aliquots of the enzyme solution mixed with 25 μL 1% DMSO in buffer solution (no compounds). The final concentration of DMSO was 0.5% v/v in all samples. The blank solution was the highest used concentration of the compound in 0.5% DMSO in buffer solution (no enzyme). All resulting solutions were incubated with moderate shaking for 75 min at 37 °C in a 96-well plate. […] After proper mixing, the formation of 2-nitro-5-thiobenzoate (5-TNB) was monitored with a microplate reader at 405 nm 10 times in 35 s intervals for about 6 min. The increase in 5-TNB concentration over time followed a linear trend, and the enzymatic activities were calculated as the slopes (increase in absorbance per second) thereof. […] For the absorption measurements in the enzyme assay, a PerkinElmer 2030 Multilabel Reader VICTORTMX4 was used.

SK-OV-3 = test: MTT viability assay in SK-OV-3 ovarian carcinoma cells; format: cell-based, human; conditions: 72 h, mean ± SD of three independent experiments
Description: as §1

F331 = test: MTT viability assay in nonmalignant fibroblasts F331; format: cell-based, human; conditions: 72 h, mean ± SD
HCT116 p53KO = test: MTT viability assay in p53-deleted HCT116 p53KO cells; format: cell-based, human; conditions: 72 h, p53-deleted subclone, mean ± SD
Description: as §1

HCT116 WT = test: MTT viability assay in HCT116 WT colon carcinoma cells; format: cell-based, human; conditions: 72 h, mean ± SD
Description: as §1

Compound	relative resistance (IC50 SK-OV-3/CBP divided by IC50 SK-OV-3) (SK-OV-3/CBP)	relative resistance (IC50 HCT116 WT/OxR divided by IC50 HCT116 WT) (HCT116 WT/OxR)	IC50 (MES-OV/CBP) [µM]	IC50 (SK-OV-3) [µM]	IC50 (SK-OV-3/CBP) [µM]	IC50 (MES-OV) [µM]	IC50 (F331) [µM]	IC50 (HCT116 WT/OxR) [µM]	IC50 (HCT116 p53KO) [µM]	IC50 (HCT116 WT) [µM]	further results
O=S(=O)([O-])C(F)(F)F.OCc1ccnc(-c2cc(CO)ccn2)c1.[Ag+].c1ccc(P(c2ccccc2)c2ccccc2)cc1 [Compound 3, [Ag(4,4′-CH2OH-2,2′-bipy)(PPh3)][CF3SO3]]	1.4^n.s.	0.7^n.s.	–	–	–	–	–	–	–	–	relative resistance (IC50 MES-OV/CBP divided by IC50 MES-OV) (MES-OV/CBP): 0.8^n.s.
Cc1ccnc(-c2cc(C)ccn2)c1.O=S(=O)([O-])C(F)(F)F.[Ag+].c1ccc(P(c2ccccc2)c2ccccc2)cc1 [Compound 2, [Ag(4,4′-CH3-2,2′-bipy)(PPh3)][CF3SO3]]	1.5^n.s.	0.9^n.s.	–	–	–	–	–	–	–	–	–
O=S(=O)([O-])C(F)(F)F.[Ag+].c1ccc(-c2ccccn2)nc1.c1ccc(P(CCP(c2ccccc2)c2ccccc2)c2ccccc2)cc1 [Compound 4, [Ag(2,2′-bipy)(dppe)][CF3SO3]]	0.8^n.s.	0.9^n.s.	–	–	–	–	–	–	–	–	ROS levels increase (peak) (MES-OV cells [1]): ~5 fold; stability in PBS [2]: immediate rearrangement of the ligands to afford a mixture between AgP2 and AgN2 species; cytoplasmic vacuole formation (phase contrast) (MES-OV cells [3]): induced pronounced cytoplasmic vacuoles only after 24 h incubation; vacuole diameter (TEM) (MES-OV cells [4]): 300–1500 nm; cells with mitochondrial depolarization (low Δψ fraction) (MES-OV cells [5]; 10 μM): 50%; cancer cells killed at lowest tested concentration (MES-OV): more than 50%; TrxR inhibition strength relative to 7 (recombinant rat TrxR): 10 fold
N.N.O=C([O-])C1(C(=O)[O-])CCC1.[Pt+2] [carboplatin, reference compound]	1.6*	–	94.7 ± 9.24	56.5 ± 15.4	89.9 ± 5.64	44.3 ± 7.09	–	–	–	–	–
[Ag(4,4′-CH3-2,2′-bipy)(dppe)][CF3SO3] [Compound 5]	0.9^n.s.	1.0^n.s.	0.06 ± 0.03	6.86 ± 1.55	6.5 ± 1.29	0.06 ± 0.03	8.52 ± 0.9	0.75 ± 0.08	0.43 ± 0.05	0.74 ± 0.06	relative resistance (IC50 MES-OV/CBP divided by IC50 MES-OV) (MES-OV/CBP): 1.0^n.s.
[Ag(4,4′-CH2OH-2,2′-bipy)(dppe)][CF3SO3] [Compound 6]	0.8^n.s.	0.8^n.s.	< 0.05	6.5 ± 1.66	5.52 ± 2.2	< 0.05	> 10	0.54 ± 0.11	0.49 ± 0.14	0.64 ± 0.06	cancer cells killed at lowest tested concentration (MES-OV): more than 50%
O=C1[O][Pt]2([NH][C@@H]3CCCC[C@H]3[NH]2)[O]C1=O [oxaliplatin, reference compound]	–	>14**	–	–	–	–	–	> 10	2.37 ± 0.45	0.72 ± 0.18	–
[Ag(dppe)2][CF3SO3] [Compound 7]	–	1.1^n.s.	0.05 ± 0.02	–	5.97 ± 1.42	< 0.05	5.78 ± 0.5	0.38 ± 0.05	0.34 ± 0.01	0.35 ± 0.04	ROS levels increase (peak) (MES-OV cells [1]): ~5 fold; stability in PBS [2]: stable under these conditions; cytoplasmic vacuole formation (phase contrast) (MES-OV cells [3]): formation of cytoplasmic vacuoles near the nucleus within the cytoplasm was observed; diameter of big vacuoles (TEM) (MES-OV cells [4]): up to 7.5 μm; cells with mitochondrial depolarization (low Δψ fraction) (MES-OV cells [5]; 1 μM): 30%; cells with mitochondrial depolarization (low Δψ fraction) (MES-OV cells [5]; 10 μM): 90%; activity relative to 4 after 24 h (MES-OV; 24 h MTT (Table S2)): about twofold more active than 4
